# Measured values taken from patent US7994204B2, “Binding inhibitor of sphingosine-1-phosphate” (Taisho Pharmaceutical Co., Ltd, priority 2006, dated 2011).
# Biological target: T1, human Edg-1 (S1P1) (Homo sapiens, UniProt P21453)
# T1 construct: expressed in transfected cells; host or cells: HEK-293
# Assay: S1P1 binding inhibition test (membrane, [33P]-S1P)
# Settings: compound 10 μM; [33P]-S1P 0.1 nM; human Edg-1 (S1P1) HEK-293 membrane fraction; read-out: Binding test (membrane) % inhibition (10 μM)
# Protocol: The membrane fraction was obtained by treating the cells with a solubilizing buffer (1 mM Tris/HCl, pH 7.2) for 10 minutes on ice, centrifuging at 1000×g for 5 minutes to remove insoluble fractions, and then centrifuging at 40000×g for 30 minutes at 4° C. The resulting membrane fraction was dissolved in a binding buffer (20 mM Tris-HCl, pH 7.4, 100 mM NaCl, 15 mM NaF, 2 mM deoxypyridoxine, 4 mg/mL fatty acid-free BSA), and then [^33P]-S1P (manufactured by ARC, final concentration 0.1 nM) and a DMSO solution (final concentration of the compound 10^−5 M, final concentration of DMSO 0.1%) of the test compound were added. Thereafter, the mixture was stirred and then treated for one hour at 30° C. Using a harvester, the membrane fraction was harvested onto unifilter-96 GF/C filter (manufactured by Perkin Elmer), washing was carried out four times with the binding buffer, and the filter was dried. Twenty five μL Microscint 0 (manufactured by Perkin Elmer) was added, and radioactivity was measured using Top Count NXT (manufactured by Packard) to calculate the amount (A) of [^33P]-S1P bound to the membrane fraction at the time when the compound was added.
# The same procedure was carried out in the absence of the test compound, and the amount (B) of [^33P]-S1P bound was calculated. Further, the same procedure was carried out in the absence of the test compound by use of HEK-293 cells to which no Edg-1 (S1P1) gene was introduced, and the background amount (C) of [^33P]-S1P bound was calculated.
# Inhibition rate (%)=[1−(A−C)/(B−C)]×100.
# Moreover, the concentration required for a test compound to produce 50% inhibition of the binding caused in the absence of the test compound was also calculated (IC50). The above membrane system binding test was performed in the presence of a test compound at various concentrations to calculate the inhibition rate of Edg-1(S1P1) binding at each concentration according to the above equation, followed by calculating an IC50 value for each compound with data analysis software, Origin (Lightstone Corp., Japan).
# T1 sequence (P21453 whole entry): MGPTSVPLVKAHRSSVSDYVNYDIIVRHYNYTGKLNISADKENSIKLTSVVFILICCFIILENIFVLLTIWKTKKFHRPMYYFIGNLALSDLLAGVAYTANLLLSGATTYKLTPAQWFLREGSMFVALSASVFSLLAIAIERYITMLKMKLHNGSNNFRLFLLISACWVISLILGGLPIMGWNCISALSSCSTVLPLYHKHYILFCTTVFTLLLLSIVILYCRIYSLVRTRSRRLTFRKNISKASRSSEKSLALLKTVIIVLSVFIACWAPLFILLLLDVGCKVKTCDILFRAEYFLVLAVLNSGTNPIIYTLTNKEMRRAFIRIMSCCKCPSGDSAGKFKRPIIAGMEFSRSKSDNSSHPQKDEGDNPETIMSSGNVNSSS
row,Structure (SMILES),inhibition at 10 µM [%]
1,CCn1c(C(C)NS(=O)(=O)c2cc(OC)ccc2OC)cnc1Oc1ccc(C)cc1 (centres unmarked) [Compound 81],83.1
2,CCn1c(C(C)NS(=O)(=O)c2cccc(Br)c2)cnc1Oc1ccc(C)cc1 (centres unmarked) [Compound 9],113
3,CCn1c(C(C)NS(=O)(=O)c2cc(C)ccc2OC)cnc1Oc1ccc(C)cc1 (centres unmarked) [Compound 73],74.3
4,C=Cc1ccc(S(=O)(=O)NC(C)c2cnc(Oc3ccc(C)cc3)n2CC)cc1 (centres unmarked) [Compound 40],81.2
5,"CCn1c(C(C)NS(=O)(=O)c2ccc(Cl)c(Cl)c2)cnc1Oc1cccc(NS(C)(=O)=O)c1 (centres unmarked) [Compound 234, 3,4-Dichloro-N-{1-[3-ethyl-2-(3-methanesulfonylaminophenoxy)-3H-imidazol-4-yl]-ethyl}-benzenesulfonamide]",98.1
6,CCn1c(C(C)NS(=O)(=O)c2ccc3nsnc3c2)cnc1Oc1ccc(C)cc1 (centres unmarked) [Compound 147],73.2
7,CCn1c(C(C)NS(=O)(=O)/C=C/c2ccccc2)cnc1Oc1ccc(C)cc1 (centres unmarked) [Compound 32],93.5
8,CCn1c(C(C)NS(=O)(=O)c2cc(Br)ccc2Br)cnc1Oc1ccc(C)cc1 (centres unmarked) [Compound 110],86.4
9,CCn1c(C(C)NS(=O)(=O)c2csc3ccccc23)cnc1Oc1ccc(C)cc1 (centres unmarked) [Compound 178],64.2
10,CCn1c(C(C)NS(=O)(=O)c2ccccc2C)cnc1Oc1ccc(C)cc1 (centres unmarked) [Compound 38],79.8
11,CCn1c(C(C)NS(=O)(=O)c2cc(Cl)c(Cl)cc2Cl)cnc1Oc1ccc(C)cc1 (centres unmarked) [Compound 33],115
12,CCn1c(C(C)NS(=O)(=O)c2cc(C)ccc2F)cnc1Oc1ccc(C)cc1 (centres unmarked) [Compound 134],81
13,CCn1c(C(C)NS(=O)(=O)c2cc(F)c(F)cc2F)cnc1Oc1ccc(C)cc1 (centres unmarked) [Compound 109],81.3
14,CCn1c(C(C)NS(=O)(=O)c2c(C)cc(OC)c(C)c2C)cnc1Oc1ccc(C)cc1 (centres unmarked) [Compound 68],64.7
15,CCn1c(C(C)NS(=O)(=O)c2sc3ccc(Cl)cc3c2C)cnc1Oc1ccc(C)cc1 (centres unmarked) [Compound 14],76.5
16,CCn1c(C(C)NS(=O)(=O)c2c(Cl)cc(Cl)cc2Cl)cnc1Oc1ccc(C)cc1 (centres unmarked) [Compound 78],66.7
17,CCn1c(C(C)NS(=O)(=O)c2ccc(Cl)c(Cl)c2)cnc1OCCCN1CCN(C)CC1 (centres unmarked) [Compound 251],96.3

row,Structure (SMILES),inhibition at 10 µM [%]
1,"CCn1c(C(C)NS(=O)(=O)c2ccc(Cl)c(Cl)c2)cnc1Oc1cccc(-n2cccc2)c1 (centres unmarked) [Compound 249, 3,4-Dichloro-N-{1-[3-ethyl-2-(3-pyrrol-1-yl-phenoxy)-3H-imidazol-4-yl]-ethyl}-benzenesulfonamide]",100
2,CCn1c(C(C)NS(=O)(=O)c2c(C)cc(Cl)cc2Cl)cnc1Oc1ccc(C)cc1 (centres unmarked) [Compound 108],81.3
3,CCn1c(C(C)NS(=O)(=O)c2ccc(C(=O)OC)n2C)cnc1Oc1ccc(C)cc1 (centres unmarked) [Compound 51],93.7
4,CCn1c(C(C)NS(=O)(=O)c2ccc(F)c(C#N)c2)cnc1Oc1ccc(C)cc1 (centres unmarked) [Compound 114],96.8
5,CCn1c(C(C)NS(=O)(=O)c2cc(F)c(F)cc2Cl)cnc1Oc1ccc(C)cc1 (centres unmarked) [Compound 93],75.2
6,CCn1c(C(C)NS(=O)(=O)c2ccc(Cl)cc2F)cnc1Oc1ccc(C)cc1 (centres unmarked) [Compound 120],81.2
7,CCn1c(C(C)NS(=O)(=O)c2ccccc2)cnc1Oc1ccc(C)cc1 (centres unmarked) [Compound 4],72.8
8,CCn1c(C(C)NS(=O)(=O)c2ccc(OC)cc2)cnc1Oc1ccc(C)cc1 (centres unmarked) [Compound 23],98.6
9,CCn1c(C(C)NS(=O)(=O)c2ccc(OC(F)F)cc2)cnc1Oc1ccc(C)cc1 (centres unmarked) [Compound 116],78.2
10,CCn1c(C(C)NS(=O)(=O)c2cc(C(F)(F)F)ccc2Cl)cnc1Oc1ccc(C)cc1 (centres unmarked) [Compound 104],70.9
11,"CC[C@H](NS(=O)(=O)c1ccc(Cl)c(Cl)c1)c1cnc(Oc2ccc(F)cc2)n1CC [Compound 254, (S)-(−)-3,4-Dichloro-N-{1-[3-ethyl-2-(4-fluorophenoxy)-3H-imidazol-4-yl]-propyl}-benzenesulfonamide]",68.6
12,CCn1c(C(C)NS(=O)(=O)c2ccc(C)cc2)cnc1Oc1ccc(C)cc1 (centres unmarked) [Compound 35],98.1
13,CCn1c(C(C)NS(=O)(=O)c2ccc(Br)cc2Cl)cnc1Oc1ccc(C)cc1 (centres unmarked) [Compound 130],77.5
14,CCn1c(C(C)NS(=O)(=O)c2ccc(F)cc2Br)cnc1Oc1ccc(C)cc1 (centres unmarked) [Compound 123],70.6
15,CCn1c(C(C)NS(=O)(=O)c2cccc(Cl)c2)cnc1Oc1ccc(C)cc1 (centres unmarked) [Compound 84],72.4
16,CCn1c(C(C)NS(=O)(=O)c2ccc(C#N)cc2)cnc1Oc1ccc(C)cc1 (centres unmarked) [Compound 76],89.3
17,CCn1c(C(C)NS(=O)(=O)c2cc(Cl)cc(Cl)c2)cnc1Oc1ccc(C)cc1 (centres unmarked) [Compound 63],95.3

# Second part, the compound after the results:
row,inhibition at 10 µM [%],Structure (SMILES)
1,114,CCn1c(C(C)NS(=O)(=O)c2ccc3ccccc3c2)cnc1Oc1ccc(C)cc1 (centres unmarked) [Compound 28]
2,106,CCn1c(C(C)NS(=O)(=O)c2ccc(F)c(Cl)c2)cnc1Oc1ccc(C)cc1 (centres unmarked) [Compound 65]
3,64.4,CCn1c(C(C)NS(=O)(=O)c2cccc(C#N)c2)cnc1Oc1ccc(C)cc1 (centres unmarked) [Compound 13]
4,53,CCn1c(C(C)NS(=O)(=O)c2c(F)cccc2F)cnc1Oc1ccc(C)cc1 (centres unmarked) [Compound 103]
5,65.6,CCn1c(C(C)NS(=O)(=O)c2cc(Cl)ccc2F)cnc1Oc1ccc(C)cc1 (centres unmarked) [Compound 128]
6,84.2,CCn1c(C(C)NS(=O)(=O)c2cccc(F)c2)cnc1Oc1ccc(C)cc1 (centres unmarked) [Compound 105]
7,100,CCn1c(C(C)NS(=O)(=O)c2ccc(Br)c(C)c2)cnc1Oc1ccc(C)cc1 (centres unmarked) [Compound 122]
8,101,CCn1c(C(C)NS(=O)(=O)c2cc(F)c(F)c(F)c2)cnc1Oc1ccc(C)cc1 (centres unmarked) [Compound 121]
9,107,CCn1c(C(C)NS(=O)(=O)c2cc(C)c(Cl)cc2Cl)cnc1Oc1ccc(C)cc1 (centres unmarked) [Compound 101]
10,59.6,CCn1c(C(C)NS(=O)(=O)c2ccc(-c3ccno3)s2)cnc1Oc1ccc(C)cc1 (centres unmarked) [Compound 111]
11,93.3,CCn1c(C(C)NS(=O)(=O)c2ccc(I)cc2)cnc1Oc1ccc(C)cc1 (centres unmarked) [Compound 31]
12,96.7,CCn1c(C(C)NS(=O)(=O)c2ccc(C(C)=O)cc2)cnc1Oc1ccc(C)cc1 (centres unmarked) [Compound 3]
13,56.8,CCn1c(C(C)NS(=O)(=O)c2cc(F)ccc2C)cnc1Oc1ccc(C)cc1 (centres unmarked) [Compound 70]
14,71.8,CCn1c(C(C)NS(=O)(=O)c2ccc(C#N)cc2Cl)cnc1Oc1ccc(C)cc1 (centres unmarked) [Compound 89]
15,80.7,CCc1ccc(OC)c(S(=O)(=O)NC(C)c2cnc(Oc3ccc(C)cc3)n2CC)c1 (centres unmarked) [Compound 166]
16,75.9,CCn1c(C(C)NS(=O)(=O)c2ccc(Br)c(C(F)(F)F)c2)cnc1Oc1ccc(C)cc1 (centres unmarked) [Compound 172]
17,104,CCn1c(C(C)NS(=O)(=O)c2ccc(C)c(C)c2)cnc1Oc1ccc(C)cc1 (centres unmarked) [Compound 133]
18,109,CCn1c(C(C)NS(=O)(=O)c2cc(C)c(Cl)cc2C)cnc1Oc1ccc(C)cc1 (centres unmarked) [Compound 16]
19,87.3,CCn1c(C(C)NS(=O)(=O)c2cccc(OC(F)F)c2)cnc1Oc1ccc(C)cc1 (centres unmarked) [Compound 117]
20,100,"CC[C@@H](NS(=O)(=O)c1ccc(Cl)c(Cl)c1)c1cnc(Oc2ccc(F)cc2)n1CC [Compound 253, (R)-(+)-3,4-Dichloro-N-{1-[3-ethyl-2-(4-fluorophenoxy)-3H-imidazol-4-yl]-propyl}-benzenesulfonamide]"
21,52.5,CCn1c(C(C)NS(=O)(=O)CCc2cccc3ccccc23)cnc1Oc1ccc(C)cc1 (centres unmarked) [Compound 29]
22,63.3,CCn1c(C(C)NS(=O)(=O)c2ccccc2Br)cnc1Oc1ccc(C)cc1 (centres unmarked) [Compound 7]
23,83.4,CCn1c(C(C)NS(=O)(=O)c2cccc(Cl)c2F)cnc1Oc1ccc(C)cc1 (centres unmarked) [Compound 135]
24,65.6,CCn1c(C(C)NS(=O)(=O)c2ccc(C(F)(F)F)cc2Br)cnc1Oc1ccc(C)cc1 (centres unmarked) [Compound 124]

# Same assay, conditions: human Edg-1 (S1P1) gene transferred HEK-293 membrane fraction
row,Kd [nM],Structure (SMILES)
1,0.15,"CCCCCCCCCCCCC/C=C/[C@@H](O)[C@@H](N)COP(=O)(O)O [[^33P]-S1P, Sphingosine-1-phosphate]"

# Same assay, conditions: membrane system binding test, various concentrations
row,IC50 [nM],Structure (SMILES)
1,≤ 35,"CCn1c(C(C)NS(=O)(=O)c2ccc(Cl)c(Cl)c2)cnc1Oc1cccc(NS(C)(=O)=O)c1 (centres unmarked) [Compound 234, 3,4-Dichloro-N-{1-[3-ethyl-2-(3-methanesulfonylaminophenoxy)-3H-imidazol-4-yl]-ethyl}-benzenesulfonamide]"
2,27.5,"CC[C@@H](NS(=O)(=O)c1ccc(Cl)c(Cl)c1)c1cnc(Oc2ccc(F)cc2)n1CC [Compound 253, (R)-(+)-3,4-Dichloro-N-{1-[3-ethyl-2-(4-fluorophenoxy)-3H-imidazol-4-yl]-propyl}-benzenesulfonamide]"

# Same assay, conditions: read-out: Binding test (membrane) % inhibition (10 μM)
row,Structure (SMILES),inhibition at 10 µM [%]
1,CCn1c(C(C)NS(=O)(=O)c2ccc(F)cc2Cl)cnc1Oc1ccc(C)cc1 (centres unmarked) [Compound 82],64.2
